Here are results for two molecules from US7875587B2, “Peptide analogues of GIP for treatment of diabetes, insulin resistance and obesity” (UUTECH Limited, priority 2004, dated 2011).

Test [1] concerns Wistar rats. Nature of the test: In vivo plasma glucose and insulin after i.p. glucose with peptide in Wistar rats. Set-up: species or system rat. To be noted: 10 nmol/kg i.p. with glucose. As to the method: In vivo biological activity of GIP and Tyr^1-glucitol GIP. Effects of GIP and Tyr^1-glucitol GIP on plasma glucose and insulin concentrations were examined using 10-12 week old male Wistar rats. The animals were housed individually in an air conditioned room and 22±2° C. with a 12 hour light/12 hour dark cycle. Drinking water and a standard rodent maintenance diet (Trouw Nutrition, Belfast, Northern Ireland) were supplied ad libitum. Food was withdrawn for an 18 hour period prior to intraperitoneal injection of glucose alone (18 mmol/kq body weight) or in combination with either GIP or Tyr^1-glucitol GIP (10 nmol/kg). Test solutions were administered in a final volume of 8 ml/kg body weight. Blood samples were collected at 0, 15, 30 and 60 minutes from the cut tip of the tail of conscious rats into chilled fluoride/heparin microcentrifuge tubes (Sarstedt, Numbrecht, Germany). Samples were centrifuged using a Beckman microcentrifuge for about 30 seconds at 13,000 g. Plasma samples were aliquoted and stored at −20° C. prior to glucose and insulin determinations. All animal studies were done in accordance with the Animals (Scientific Procedures) Act 1986.
Analyses. Plasma glucose was assayed by an automated glucose oxidase procedure using a Beckman Glucose Analyzer II [33]. Plasma insulin was determined by dextran charcoal radioimmunoassay as described previously. Incremental areas under plasma glucose and insulin area under the curve (AUC) were calculated using a computer program (CAREA) employing the trapezoidal rule with baseline subtraction. Results are expressed as mean±SEM and values were compared using the Student's unpaired t-test.

The subject of test [2] is BRIN-BD11 cells. As to the kind of experiment: Insulin release from clonal pancreatic BRIN-BD11 cells (Example 6). In kind it is cell-based. To be noted: 5.6 mmol/l glucose, 20 minutes incubation. As to the method:
Cells and cell culture. Chinese hamster lung (CHL) fibroblasts stably transfected with the human GIP receptor (Gremlich, S. et al., 1995, Diabetes 44: 1202-1208) were cultured in DMEM tissue culture medium containing 10% (v/v) FBS, 1% (v/v) antibiotics (100 U/ml penicillin, 0.1 mg/ml streptomycin). Clonal pancreatic BRIN-BD11 cells (McClenaghan, N. H. et al., 1996, Diabetes 45: 1132-1140) were cultured using RPMI-1640 culture medium containing 10% (v/v) FBS, 1% (v/v) antibiotics (100 U/ml penicillin, 0.1 mg/ml streptomycin) and 11.1 mmol/l glucose. Cells were maintained at 37° C. in an atmosphere of 5% CO2 and 95% air using an LEEC incubator (Laboratory Technical Engineering, Nottingham, UK).
Insulin-release studies were carried out using clonal pancreatic BRIN-BD11 cells as described previously (O'Harte, F. P. M. et al., 2002, Diabetologia 45: 1281-1291). Briefly, BRIN-BD11 cells were seeded into 24-well plates at a density of 10^5 cells per well, and allowed to attach overnight at 37° C. Acute tests for insulin release were preceded by 40 minutes pre-incubation at 37° C. in 1.0 ml Krebs Ringer bicarbonate buffer supplemented with 1.1 mmol/l glucose. Test incubations were performed in the presence of 5.6 mmol/l glucose with a range of concentrations (10^−13 to 10^−6 mol/l) of GIP and GIP analogues. After 20 minutes incubation, the buffer was removed from each well and aliquots (200 μl) used for measurement of insulin.

The subject of test [3] is ob/ob mice. Nature of the test: Once daily i.p. injection for 14 days in ob/ob mice. In kind it is in vivo, mouse. To be noted: for body weight / food intake / non-fasting plasma insulin: 14 days; for plasma insulin response to glucose (AUC) / glucose tolerance: after 14 daily injections; for glucose tolerance: i.p. glucose 18 mmoles/kg; for insulin sensitivity: after 14 days, insulin 50 U/kg i.p. The protocol: Animals. Obese diabetic (ob/ob) mice derived from the colony maintained at Aston University, UK were used at 12-17 weeks of age. The genetic background and characteristics of the colony used have been outlined in detail elsewhere (Bailey, C. J. et al., 1982, Int. J. Obesity 6:11-21; Gault, V. A. et al., 2003, J. Endocrinol. 176: 133-141). Animals were housed in an air-conditioned room at 22±2° C. with a 12 hours light: 12 hours dark cycle. Drinking water and standard rodent maintenance diet (Trouw Nutrition, Cheshire, UK) were freely available. All test solutions were administered by i.p. injection in a final volume of 5 ml/kg bw. Blood was collected from the cut tip of the tail vein of conscious mice into chilled fluoride/heparin microcentrifuge tubes immediately prior to injection and at the times indicated in the Figures. Plasma was separated using a Beckman microcentrifuge (Beckman Instruments, UK) at 13,000 g for 30 second and stored at −20° C. prior to glucose and insulin determinations. All animal experiments were carried out in accordance with the UK Animals (Scientific Procedures) Act 1986.
Metabolic and dose-response effects of GIP and N-AcGIP(LysPAL) analogues (at 6.25-25 nmoles/kg bw) following glucose administration (18 mmoles/kg bw) were examined in mice fasted for 18 hours. […] Food intake and body weight were recorded daily. Plasma glucose and insulin concentrations were monitored at 2-6 day intervals. At 14 days, groups of animals were used to evaluate intraperitoneal glucose tolerance (18 mmoles/kg) and insulin sensitivity (50 U/kg). In a separate series, two experimental protocols were employed to examine the possibility of GIP receptor desensitization after 14 days treatment. […] At the end of the 14-day treatment period, pancreatic tissues were excised for measurement of insulin following extraction with 5 ml/g ice-cold acid ethanol (75% ethanol, […], 1.5% HCl). Whole blood was taken for determination of glycated hemoglobin.
Biochemical analyses. Plasma glucose was assayed by an automated glucose oxidase procedure (Stevens, J. F., 1971, Clin. Chem. Acta 32:199-201) using a Beckman Glucose Analyser II (Beckman, Galway, Ireland). Plasma insulin was determined by dextran-charcoal RIA as described previously (Flatt, P. R. et al., 1981, Diabetologia 20: 573-577). Glycated hemoglobin was determined using cation-exchange columns (Sigma, Poole, Dorset, UK) with measurement of absorbance (415 nm) in wash and eluting buffers using a VersaMax microplate spectrophotometer (Molecular Devices, Wokingham, Berkshire, UK).
Statistics. Results are expressed as mean±SEM. Data were compared using the unpaired Student's t-test. Where appropriate, data were compared using repeated measures ANOVA or one-way ANOVA, followed by the Student-Newman-Keuls post hoc test. Incremental areas under plasma glucose and insulin curves (AUC) were calculated using a computer-generated program employing the trapezoidal rule (Burington, R. S., 1973, Handbook of Mathematical Tables and Formulae, McGraw-Hill, New York) with baseline subtraction.

For `CC[C@H](C)[C@H](NC(=O)[C@H](CO)NC(=O)[C@H](Cc1ccc(O)cc1)NC(=O)[C@H](CC(=O)O)NC(=O)[C@H](CO)NC(=O)[C@@H](NC(=O)[C@H](Cc1ccccc1)NC(=O)[C@@H](NC(=O)CNC(=O)[C@H](CCC(=O)O)NC(=O)[C@H](C)NC(=O)[C@@H](N)Cc1ccc(O)cc1)[C@@H](C)O)[C@@H](C)CC)C(=O)N[C@@H](C)C(=O)N[C@@H](CCSC)C(=O)N[C@@H](CC(=O)O)C(=O)N[C@@H](CCCCN)C(=O)N[C@H](C(=O)N[C@@H](Cc1c[nH]cn1)C(=O)N[C@@H](CCC(N)=O)C(=O)N[C@@H](CCC(N)=O)C(=O)N[C@@H](CC(=O)O)C(=O)N[C@@H](Cc1ccccc1)C(=O)N[C@H](C(=O)N[C@@H](CC(N)=O)C(=O)N[C@@H](Cc1c[nH]c2ccccc12)C(=O)N[C@@H](CC(C)C)C(=O)N[C@@H](CC(C)C)C(=O)N[C@@H](C)C(=O)N[C@@H](CCC(N)=O)C(=O)N[C@@H](CCCCN)C(=O)NCC(=O)N[C@@H](CCCCN)C(=O)N[C@@H](CCCCN)C(=O)N[C@@H](CC(N)=O)C(=O)N[C@@H](CC(=O)O)C(=O)N[C@@H](Cc1c[nH]c2ccccc12)C(=O)N[C@@H](CCCCN)C(=O)N[C@@H](Cc1c[nH]cn1)C(=O)N[C@@H](CC(N)=O)C(=O)N[C@H](C(=O)N[C@H](C(=O)N[C@@H](CCC(N)=O)C(=O)O)[C@@H](C)O)[C@@H](C)CC)C(C)C)[C@@H](C)CC` [GIP 1–42, reference compound], the “overall insulin response (AUC) compared with glucose alone” value in test [1] was “significantly greater”. Moreover, the “plasma glucose concentrations and AUC compared with control group” value in test [1] (vs glucose alone, 0-60 min) was “significantly lower”. Also, the “insulin secretion compared to control” value in test [2] is on record as “dose-dependently stimulated insulin secretion”. In test [3] (12.5 nmoles/kg/day), the body weight result is given as “no effect”, the food intake entry is listed as “no effect” and the non-fasting plasma insulin entry was “unchanged”. For the same molecule, in test [3] (12.5 nmoles/kg/day, at 14 days), the non-fasting plasma glucose entry is listed as “unchanged”. In addition, the pancreatic weight entry in test [3] (14 days treatment) is reported as “did not affect pancreatic weight”. Further, in test [3], the “plasma insulin response to glucose (AUC)” value is “had no effect”, the glucose tolerance entry is given as “had no effect” and the insulin sensitivity entry was “did not affect the characteristic insulin resistance”.

`CCCCCCCCCCCCCCCC(=O)NCCCC[C@H](NC(=O)[C@H](Cc1c[nH]c2ccccc12)NC(=O)[C@H](CC(=O)O)NC(=O)[C@H](CC(N)=O)NC(=O)[C@H](CCCCN)NC(=O)[C@H](CCCCN)NC(=O)CNC(=O)[C@H](CCCCN)NC(=O)[C@H](CCC(N)=O)NC(=O)[C@H](C)NC(=O)[C@H](CC(C)C)NC(=O)[C@H](CC(C)C)NC(=O)[C@H](Cc1c[nH]c2ccccc12)NC(=O)[C@H](CC(N)=O)NC(=O)[C@@H](NC(=O)[C@H](Cc1ccccc1)NC(=O)[C@H](CC(=O)O)NC(=O)[C@H](CCC(N)=O)NC(=O)[C@H](CCC(N)=O)NC(=O)[C@H](Cc1c[nH]cn1)NC(=O)[C@@H](NC(=O)[C@H](CCCCN)NC(=O)[C@H](CC(=O)O)NC(=O)[C@H](CCSC)NC(=O)[C@H](C)NC(=O)[C@@H](NC(=O)[C@H](CO)NC(=O)[C@H](Cc1ccc(O)cc1)NC(=O)[C@H](CC(=O)O)NC(=O)[C@H](CO)NC(=O)[C@@H](NC(=O)[C@H](Cc1ccccc1)NC(=O)[C@@H](NC(=O)CNC(=O)[C@H](CCC(=O)O)NC(=O)[C@H](C)NC(=O)[C@H](Cc1ccc(O)cc1)NC(C)=O)[C@@H](C)O)[C@@H](C)CC)[C@@H](C)CC)[C@@H](C)CC)C(C)C)C(=O)N[C@@H](Cc1c[nH]cn1)C(=O)N[C@@H](CC(N)=O)C(=O)N[C@H](C(=O)N[C@H](C(=O)N[C@@H](CCC(N)=O)C(=O)O)[C@@H](C)O)[C@@H](C)CC` [N-AcGIP(LysPAL^37)]: the “insulin secretion compared to control” value in test [2] is recorded as “significantly stimulated glucose-induced insulin secretion”. In test [3] (12.5 nmoles/kg/day), the body weight entry is recorded as “no effect”, the food intake result is on record as “no effect” and the non-fasting plasma insulin entry is on record as “tendency towards elevated insulin concentrations”. Moreover, in test [3] (12.5 nmoles/kg/day, at 14 days), the glycated hemoglobin entry was “significantly (p<0.01) decreased” and the non-fasting plasma glucose result was “significantly (p<0.05) lowered”. In addition, in test [3] (14 days treatment), the pancreatic insulin content entry was “significantly increased” and the pancreatic weight entry was “did not affect pancreatic weight”. Moreover, the GIP receptor desensitization result in test [3] (acute 25 nmoles/kg with glucose after 14 days treatment) is given as “lack of GIP receptor desensitization”. Moreover, in test [3], the “plasma insulin response to glucose (AUC)” value is listed as “greater (p<0.01) overall AUC insulin response”, the glucose tolerance result was “significant improvement in glucose tolerance” and the insulin sensitivity entry was “significant improvement of insulin sensitivity”.
